The values below come from publication PMC10535379 (Viruses, 2023).

“Also recorded” adds a separate entry of the source. Counter-ions that a name gives are not always drawn. Like-named read-outs stand apart in the source and are kept apart here.

The test system of series [1] is FMDV serotype A (NP05). Kind of series: microbe, parasite or virus in culture. Format: cell-based, foot-and-mouth disease virus. Particulars: for EC50: Foot-and-mouth disease virus, BHK-21, read-out: EC50 Pre-Treatment.
Series [2] concerns FMDV serotype A (NP05).
Series [3] is described as follows: in vitro. Particulars: hamster.
The subject of series [4] is FMDV serotype A (NP05). As to the kind of experiment: microbe, parasite or virus in culture. It is filed as cell-based, foot-and-mouth disease virus. Particulars: for EC50: Foot-and-mouth disease virus, BHK-21, read-out: EC50 Co-Treatment.
Series [5] deals with Schizosaccharomyces pombe. Particulars: cited from earlier work.
In series [6] the test system is Saccharomyces cerevisiae. Particulars: cited from earlier work.
Series [7] concerns FMDV serotype A (NP05). It is filed as cell-based, foot-and-mouth disease virus. Particulars: for Virucidal effect: 50 µM, 0 min.
In series [8] the test system is BHK-21 cells. Particulars: hamster.
Series [9] deals with FMDV. Particulars: cited from earlier work.
Series [10] deals with HEK-293T cells. Particulars: human.
The test system of series [11] is FMDV serotype A (NP05). As to the kind of experiment: microbe, parasite or virus in culture. Particulars: Foot-and-mouth disease virus, BHK-21, read-out: EC50 Post Entry.
The target in series [12] is FMDV 3Cpro (Foot-and-mouth disease virus, UniProt P03306). Kind of series: cell-based.
Sequence of FMDV 3Cpro (P03306 1650-1862 limits assumed): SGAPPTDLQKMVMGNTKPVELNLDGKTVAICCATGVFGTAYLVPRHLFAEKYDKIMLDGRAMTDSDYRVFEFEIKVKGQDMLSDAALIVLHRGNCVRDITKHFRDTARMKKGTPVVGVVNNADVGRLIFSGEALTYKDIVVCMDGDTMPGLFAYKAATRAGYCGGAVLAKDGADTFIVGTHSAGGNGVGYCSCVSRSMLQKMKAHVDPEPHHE
The test system of series [13] is FMDV serotype A (NP05). It is filed as cell-based, foot-and-mouth disease virus.
Series [14] has as its system FMDV serotype A (NP05). As to the kind of experiment: in vitro. Particulars: hamster.
Series [15] has as its system FMDV serotype A (NP05). Format: cell-based, foot-and-mouth disease virus. This is another data set of the same source.
Series [16] deals with human respiratory syncytial virus (RSV). Particulars: read-out: IC50 against RSV; cited from earlier work.
Series [17] concerns the target carboxypeptidase B. Particulars: cited from earlier work.
Series [18] deals with HEP-2 cells. Particulars: human; cited from earlier work.
Setting [19] is: HEK-293T, read-out: Inhibition of FMDV 3Cpro.

`COc1cc(/C=N/Nc2nc3c([nH]2)c(=O)n(C)c(=O)n3C)ccc1O` [NSC64672, 8-[(2E)-2-[(4-hydroxy-3-methoxyphenyl)methylidene]hydrazinyl]-1,3-dimethyl-7H-purine-2,6-dione]: the “EC50 Pre-Treatment” value in series [1] is reported as “I”. Moreover, the “EC50 Post Entry” value in series [2] is reported as “I”. The compound also gave a CC50 in [3] of 130 ± 2.3 µM. Also, the “EC50 Co-Treatment” value in [4] is listed as “I”.

For the compound `Cc1ccc([N+](=O)[O-])cc1NC(=O)c1cccc([N+](=O)[O-])c1O` [NSC79451, 2-Hydroxy-N-(2-methyl-5-nitrophenyl)-3-nitrobenzamide], the “Inhibition of Schizosaccharomyces pombe” value in series [5] is given as “none of them could inhibit”. Moreover, the “EC50 Pre-Treatment” value in [1] is given as “I”. Besides, in series [6], the “Inhibition of Saccharomyces cerevisiae” value is listed as “none of them could inhibit”. The Virucidal effect result in series [7] was “good inhibition at 0 min”. The compound also returned a CC50 in [3] of 32.79 ± 0.3 µM. The EC50 in series [4] worked out at 1.56 ± 0.03 µM.

On to `N#Cc1cc(-c2ccccc2)[nH]c1-c1nccc2ccccc12` [NSC116640, 2-isoquinolin-1-yl-5-phenyl-1H-pyrrole-3-carbonitrile], for which the EC50 worked out at 7.27 ± 0.86 µM in [1], 2.88 ± 0.17 µM in series [11] and 5.74 ± 0.23 µM in series [4]. Further, the “MNTD90 (maximum non-toxic dose)” value in series [8] and in series [10] was 50 µM in each case. In series [9], the “Potent activity in StopGo luciferase anti-FMDV screen” value is listed as 28.18 µM. Besides, the “Reduction of viral titers” value in series [7] is 1.00–2.27 log TCID50/mL. Moreover, the “Concentration required for 80% inhibition of FMDV 3Cpro” value in series [12] was “more than 40 µM”. The IC50 in series [12] turned out to be 10.8 µM. The “Viral load (viral copy number) reduction” value in series [13] is on record as “reduce the viral loads in a dose-dependent manner”. Moreover, in series [14], the selectivity ratio was determined as 73.2. The same compound returned a CC50 in series [3] of 210.7 ± 0.17 µM. In addition, in [15], the Number of viruses result is given as “slightly increased”. Further, in [15], the “Virus yield (% of viral copy numbers)” value is given as 0–10%.

For the compound `O=[N+]([O-])c1ccccc1/C=C/C=N/N=C/c1ccccc1O` [NSC119805, 2-[(E)-[(E)-[(E)-3-(2-nitrophenyl)prop-2-enylidene]hydrazinylidene]methyl]phenol], in series [1], the “EC50 Pre-Treatment” value is “I”. In addition, in series [2], the “EC50 Post Entry” value is reported as “I”. Further, in series [3], the CC50 was found to be 82.45 ± 0.4 µM. In addition, the “EC50 Co-Treatment” value in series [4] is on record as “I”.

Consider `CCN(CC)CCCC(C)NC(=O)c1ccc2c(c1)C(=O)c1ccccc1C2=O` (stereo not shown) [NSC331757, N-[5-(diethylamino)pentan-2-yl]-9,10-dioxoanthracene-2-carboxamide;hydrochloride], for which the “EC50 Pre-Treatment” value in series [1] is “I”. Further, in [2], the “EC50 Post Entry” value was “I”. Besides, the CC50 in series [3] was determined as 62.8 ± 0.87 µM. For the same compound, the “EC50 Co-Treatment” value in series [4] is “I”.

Take `Oc1ccccc1-c1nc2c3ccccc3c3ccccc3c2[nH]1` [NSC332670, 6-(1,3-Dihydrophenanthro[9,10-d]imidazol-2-ylidene)cyclohexa-2,4-dien-1-one]: the figures for the EC50 in series [1], in [11] and in [4] were 7.18 ± 0.98 µM, 5.92 ± 0.2 µM and 2.04 ± 0.02 µM, respectively. Further, the “MNTD90 (maximum non-toxic dose)” value in series [8] and in series [10] was 50 µM each time. For the same compound, the IC50 in series [16] is 11 µM; in series [17], 1550 µM; in [12] it was 4.21 µM. In addition, the “Reduction of viral titers” value in series [7] was 1.17–2.27 log TCID50/mL. For the same compound, the inhibition at 10 µM in series [12] (setting [19]) was approximately 90%. Further, the inhibition at 40 µM in series [12] (setting [19]) stood at 100%. Besides, in series [13], the “Viral load (viral copy number) reduction” value is “reduce the viral loads in a dose-dependent manner”. In addition, the selectivity ratio in [14] was 11.1. Moreover, the CC50 in series [3] is 65.82 ± 0.06 µM; in series [18], 15.3 µM. Further, the Inhibition effect result in series [15] is listed as “reduced; also recorded: completely lost”. Besides, in series [15], the Viral inhibition result is given as “great inhibition”.

Regarding `N#CC(c1ccccc1)N(CCCCCCN(C(=O)c1ccccc1)C(C#N)c1ccccc1)C(=O)c1ccccc1` (stereo not shown) [NSC681744, N-[6-[benzoyl-[cyano(phenyl)methyl]amino]hexyl]-N-[cyano(phenyl)methyl]benzamide], the “Inhibition of Schizosaccharomyces pombe” value in [5] is given as “none of them could inhibit”. Moreover, the “EC50 Pre-Treatment” value in [1] is “I”. The “Inhibition of Saccharomyces cerevisiae” value in series [6] is “none of them could inhibit”. In addition, the Virucidal effect entry in series [7] was “good inhibition at 0 min”. This compound also returned a CC50 in series [3] of 124 ± 0.5 µM. The EC50 in series [4] worked out at 4.83 ± 0.08 µM.
